Molecules are shown by their SMILES. Some results are limits rather than exact numbers.

Data set [1] is described as follows: Instantaneous solubility: vigorous mixing with deionized water for 10 minutes at room temperature. Format: physicochemical. The conditions noted are these: for concentration of the rebaudioside in the instantaneously soluble 0.37% solution of the fermentation composition: room temperature water; for instantaneous solubility: water, room temperature. The method, then: The composition can optionally be expressed in terms of the concentration of one or more steviol glycoside(s). […] Clear solutions without precipitates are considered soluble. Unless indicated otherwise herein, the term “solubility” refers to “equilibrium solubility.”
Instantaneous solubility is determined by mixing steviol glycoisde with deionized water vigorously for 10 minutes at room temperature. […] Clear solutions without precipitates are considered soluble.

Data set [2] can be described thus: Equilibrium solubility: heating in deionized water at 80° C. for 15 minutes, cooling to room temperature, observation up to 4 days. It is filed as physicochemical. The arrangement: key to equilibrium solubility at stated concentration: Clear solutions without precipitates are considered soluble. The text has this:
The composition can optionally be expressed in terms of the concentration of one or more steviol glycoside(s). […] Clear solutions without precipitates are considered soluble. Unless indicated otherwise herein, the term “solubility” refers to “equilibrium solubility.” […]

The target of another data set is T1, UGT 76G1 and EUGT11 (Stevia rebaudiana, UniProt Q6VAB4).
T1 construct: made in house; host or cells: E. coli XjB-autolysis BL21(DE3), pET30 vector, crude lysate
T1 sequence (Q6VAB4 1-458): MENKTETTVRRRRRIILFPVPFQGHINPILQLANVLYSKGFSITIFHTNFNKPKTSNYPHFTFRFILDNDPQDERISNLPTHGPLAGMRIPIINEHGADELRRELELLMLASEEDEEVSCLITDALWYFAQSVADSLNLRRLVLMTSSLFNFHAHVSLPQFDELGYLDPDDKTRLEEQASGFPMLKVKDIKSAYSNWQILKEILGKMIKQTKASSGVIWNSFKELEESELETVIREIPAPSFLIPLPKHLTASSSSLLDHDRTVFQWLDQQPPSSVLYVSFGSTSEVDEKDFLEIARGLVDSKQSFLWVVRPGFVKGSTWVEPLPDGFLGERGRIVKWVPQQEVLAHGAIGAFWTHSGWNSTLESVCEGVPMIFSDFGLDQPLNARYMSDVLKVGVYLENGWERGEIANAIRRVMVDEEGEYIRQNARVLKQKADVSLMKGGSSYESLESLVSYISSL
Kind of data set: Bioconversion of steviol glycosides with crude UGT enzyme preparations expressed in E. coli, LC-UV analysis. Format: biochemical. The conditions noted are these: UGT clone 76G1; 2 mM substrate fed, overnight at 30° C. The procedure: The wildtype genes for UGTs EUGT11 and 76G1 are cloned individually into E. coli XjB-autolysis BL21(DE3) cells using the pET30 vector system from Novagen (EMD4 Biosciences, Madison, Wis.). All vectors use an IPTG-inducible promoter. Plasmid DNA is transformed into chemically competent cells as described by the vendor.
For in vitro assays, transformants displaying the desired antibiotic resistance are grown overnight at 30° C. in 2 mL cultures using NZCYM-media and antibiotic. The following day, the cultures are induced to a final concentration of 0.3 mM IPTG and 3 mM arabinose, and grown for 24 h at 20° C. The cells are then harvested by centrifugation at 4000 rpm for […] and resuspended in 200 μL GT-buffer (RBC Bioscience) and 3 tablets/100 ml of Complete mini, protease inhibitor (Roche), transferred to Eppendorf tubes, vortexed and frozen at −80° C. for 1.5 hour. Cells are thawed on ice, and left at room temperature for 3 minutes. When approximately half-way thawed, 15 μl of 0.14 mg/ml H2O DNase solution+30 μl 0.05M MgCl2 is added to each tube and the samples are incubated for approximately 5 minutes at room temperature. The cells are centrifuged at maximum speed for 5 minutes. One-hundred μL of supernatant (lysate) is transferred to fresh microfuge tubes, and 100 μL of glycerol is added. […]

For data set [3] the following is noted: in vivo; cited from earlier work.
For data set [4] the following is noted: cited from earlier work.

With `C=C1C[C@@]23CC[C@H]4[C@@](C)(CCC[C@@]4(C)C(=O)O[C@@H]4O[C@H](CO)[C@@H](O)[C@H](O)[C@H]4O[C@@H]4O[C@H](CO)[C@@H](O)[C@H](O)[C@H]4O)[C@@H]2CC[C@]1(O[C@@H]1O[C@H](CO)[C@@H](O)[C@H](O[C@@H]2O[C@H](CO)[C@@H](O)[C@H](O)[C@H]2O)[C@H]1O[C@@H]1O[C@H](CO)[C@@H](O)[C@H](O)[C@H]1O)C3` [Reb D, rebaudioside D], the “instantaneous solubility at stated concentration” value in data set [1] (0.08%), in data set [1] (0.10%), in data set [1] (0.15%) and in data set [1] (0.20%) was “insoluble” in each case. In addition, the “improvement (increase) in instantaneous solubility over the pure rebaudioside” value in data set [1] (in the presence of compounds SG101-104 (fermentation derived composition)) is 75%. The “concentration of the rebaudioside in the instantaneously soluble 0.37% solution of the fermentation composition” value is given as 0.14% in data set [1] and “about 0.14%” in data set [1] (listed as reb D). Besides, the instantaneous solubility in data set [1] is reported as < 0.08%; in data set [1] (listed as rebaudioside D), “less than 0.08%”. The “equilibrium solubility at stated concentration” value in data set [2] (0.08%) was “soluble”; in data set [2] (0.10%), “insoluble”; in data set [2] (0.15%), “insoluble”; in data set [2] (0.20%) it was “insoluble”. Besides, the equilibrium solubility in data set [2] (after 80° C. for 15 minutes, at room temperature, up to 4 days) turned out to be 0.08%. For the same molecule, at UGT 76G1 and EUGT11, the Products result is “Rebaudioside M, various”. In data set [3], the sweetness characteristics entry is “slow onset of sweetness and was very clean”. In addition, the “times sweeter than sucrose (sugar)” value in data set [3] is recorded as 200-220 times. In data set [4] (23° C.), the “amount that can be solubilized in water” value is 300 to 450 ppm. Also, the “aqueous solubility in words” value in data set [4] is recorded as “low solubility in water at room temperature”.

Source of the values: patent US20220304349A1, “Steviol Glycoside Compositions for Oral Ingestion or Use” (CARGILL, Incorporated, priority 2016, published 2022).
